Measured values published in patent US20220125051A1, “PRE-HARVEST DESICCATION METHOD” (SYNGENTA CROP PROTECTION AG, priority 2019, published 2022).
Like-named read-outs stand apart in the source and are kept apart here.

Columns and labels:
Assay in all cases: Post-emergence efficacy, Method A
Assay type in all cases: in vivo
[1] = test system: Echinochloa crus-galli (ECHCG); details: Echinochloa crus-galli, post-emergence, 312 h, evaluated after 13 days
Procedure, shortened: (§1)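 Plants raised 14 days from seed in standard soil in a glasshouse (24/16 °C day/night, 14 h light, 65% humidity) were sprayed with compound dissolved in acetone plus IF50 solvent/emulsifier (50 g/l solution), diluted with 0.25% or 1% Empicol ESC70 + 1% ammonium sulphate. Damage was scored visually after 13 days (0 = none, 100 = total).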

[2] = test system: Lolium perenne (LOLPE); details: Lolium perenne, post-emergence, 312 h, evaluated after 13 days
Procedure, shortened: as §1

[3] = test system: Chenopodium album (CHEAL); details: Chenopodium album, post-emergence, 312 h, evaluated after 13 days
Procedure, shortened: as §1

[4] = test system: Euphorbia heterophylla (EPHHL); details: Euphorbia heterophylla, post-emergence, 312 h, evaluated after 13 days
Procedure, shortened: as §1

[5] = test system: Eleusine indica (ELEIN); details: Eleusine indica, post-emergence, 312 h, evaluated after 13 days
Procedure, shortened: as §1

[6] = test system: Digitaria sanguinalis (DIGSA); details: Digitaria sanguinalis, post-emergence, 312 h, evaluated after 13 days
Procedure, shortened: as §1

[7] = test system: Ipomoea hederacea (IPOHE); details: Ipomoea hederacea, post-emergence, 312 h, evaluated after 13 days
Procedure, shortened: as §1

[8] = test system: Setaria faberi (SETFA); details: Setaria faberi, post-emergence, 312 h, evaluated after 13 days
Procedure, shortened: as §1

[9] = test system: Amaranthus palmeri (AMAPA); details: Amaranthus palmeri, post-emergence, 312 h, evaluated after 13 days
Procedure, shortened: as §1

[10] = Application Rate 500 g/Ha, Method A, read-out: Control of weed species after post-emergence application, ECHCG (100=total damage to plant; 0=no damage to plant)
[11] = Application Rate 500 g/Ha, Method A, read-out: Control of weed species after post-emergence application, LOLPE (100=total damage to plant; 0=no damage to plant)
[12] = Application Rate 500 g/Ha, Method A, read-out: Control of weed species after post-emergence application, CHEAL (100=total damage to plant; 0=no damage to plant)
[13] = Application Rate 500 g/Ha, Method A, read-out: Control of weed species after post-emergence application, EPHHL (100=total damage to plant; 0=no damage to plant)
[14] = Application Rate 500 g/Ha, Method A, read-out: Control of weed species after post-emergence application, ELEIN (100=total damage to plant; 0=no damage to plant)
[15] = Application Rate 500 g/Ha, Method A, read-out: Control of weed species after post-emergence application, DIGSA (100=total damage to plant; 0=no damage to plant)
[16] = Application Rate 500 g/Ha, Method A, read-out: Control of weed species after post-emergence application, IPOHE (100=total damage to plant; 0=no damage to plant)
[17] = Application Rate 500 g/Ha, Method A, read-out: Control of weed species after post-emergence application, SETFA (100=total damage to plant; 0=no damage to plant)
[18] = Application Rate 500 g/Ha, Method A, read-out: Control of weed species after post-emergence application, AMAPA (100=total damage to plant; 0=no damage to plant)
[19] = Application rate 500 g/Ha, 100=total damage to plant, 0=no damage to plant, read-out: Control of weed species after post-emergence application, ECHCG
[20] = Application rate 500 g/Ha, 100=total damage to plant, 0=no damage to plant, read-out: Control of weed species after post-emergence application, LOLPE
[21] = Application rate 500 g/Ha, 100=total damage to plant, 0=no damage to plant, read-out: Control of weed species after post-emergence application, CHEAL
[22] = Application rate 500 g/Ha, 100=total damage to plant, 0=no damage to plant, read-out: Control of weed species after post-emergence application, EPHHL
[23] = Application rate 500 g/Ha, 100=total damage to plant, 0=no damage to plant, read-out: Control of weed species after post-emergence application, ELEIN
[24] = Application rate 500 g/Ha, 100=total damage to plant, 0=no damage to plant, read-out: Control of weed species after post-emergence application, DIGSA
[25] = Application rate 500 g/Ha, 100=total damage to plant, 0=no damage to plant, read-out: Control of weed species after post-emergence application, IPOHE
[26] = Application rate 500 g/Ha, 100=total damage to plant, 0=no damage to plant, read-out: Control of weed species after post-emergence application, SETFA
[27] = Application rate 500 g/Ha, 100=total damage to plant, 0=no damage to plant, read-out: Control of weed species after post-emergence application, AMAPA

CO[N-]C(=O)C[n+]1ccc(-c2ncccn2)cn1 [Compound A219]
pest or weed control at 500 g/ha [1, 10]: 40% | pest or weed control at 500 g/ha [2, 11]: 70% | pest or weed control at 500 g/ha [3, 12]: 80% | pest or weed control at 500 g/ha [4, 13]: 90% | pest or weed control at 500 g/ha [5, 14]: 100% | pest or weed control at 500 g/ha [6, 15]: 70% | pest or weed control at 500 g/ha [7, 16]: 60% | pest or weed control at 500 g/ha [8, 17]: 90% | pest or weed control at 500 g/ha [9, 18]: 100%

Cc1cccnc1-c1cc[n+](CCS(=O)(=O)[O-])nc1 [Compound A66]
pest or weed control at 500 g/ha [1, 19]: 50% | pest or weed control at 500 g/ha [2, 20]: 50% | pest or weed control at 500 g/ha [3, 21]: 20% | pest or weed control at 500 g/ha [4, 22]: 50% | pest or weed control at 500 g/ha [5, 23]: 40% | pest or weed control at 500 g/ha [6, 24]: 30% | pest or weed control at 500 g/ha [7, 25]: 40% | pest or weed control at 500 g/ha [8, 26]: 60% | pest or weed control at 500 g/ha [9, 27]: 40%

Cc1cc(-c2ncccn2)cn[n+]1CCS(=O)(=O)[O-] [Compound A212, 2-(6-methyl-4-pyrimidin-2-yl-pyridazin-1-ium-1-yl)ethanesulfonate]
pest or weed control at 500 g/ha [1, 10]: 70% | pest or weed control at 500 g/ha [2, 11]: 70% | pest or weed control at 500 g/ha [3, 12]: 100% | pest or weed control at 500 g/ha [4, 13]: 100% | pest or weed control at 500 g/ha [5, 14]: 90% | pest or weed control at 500 g/ha [6, 15]: 90% | pest or weed control at 500 g/ha [7, 16]: 30% | pest or weed control at 500 g/ha [8, 17]: 80% | pest or weed control at 500 g/ha [9, 18]: 100%

Cc1cncc(-c2cc[n+](CCC(=O)O)nc2)n1 [Compound A85]
pest or weed control at 500 g/ha [1, 19]: 70% | pest or weed control at 500 g/ha [2, 20]: 70% | pest or weed control at 500 g/ha [3, 21]: 90% | pest or weed control at 500 g/ha [4, 22]: 100% | pest or weed control at 500 g/ha [5, 23]: 90% | pest or weed control at 500 g/ha [6, 24]: 90% | pest or weed control at 500 g/ha [7, 25]: 30% | pest or weed control at 500 g/ha [8, 26]: 90% | pest or weed control at 500 g/ha [9, 27]: 90%

N[C@@H](CC[n+]1ccc(-c2ncccn2)cn1)C(=O)O [Compound A201, [(1S)-1-carboxy-3-(4-pyrimidin-2-ylpyridazin-1-ium-1-yl)propyl]ammonium 2,2,2-trifluoroacetate]
pest or weed control at 500 g/ha [1, 10]: 70% | pest or weed control at 500 g/ha [2, 11]: 30% | pest or weed control at 500 g/ha [3, 12]: 100% | pest or weed control at 500 g/ha [4, 13]: 90% | pest or weed control at 500 g/ha [5, 14]: 100% | pest or weed control at 500 g/ha [6, 15]: 80% | pest or weed control at 500 g/ha [7, 16]: 40% | pest or weed control at 500 g/ha [8, 17]: 80% | pest or weed control at 500 g/ha [9, 18]: 100%

COc1ccnc(-c2cc[n+](CCC(=O)[O-])nc2)n1 [Compound A101]
pest or weed control at 500 g/ha [1, 19]: 60% | pest or weed control at 500 g/ha [2, 20]: 70% | pest or weed control at 500 g/ha [3, 21]: 70% | pest or weed control at 500 g/ha [4, 22]: 80% | pest or weed control at 500 g/ha [5, 23]: 40% | pest or weed control at 500 g/ha [6, 24]: 60% | pest or weed control at 500 g/ha [7, 25]: 10% | pest or weed control at 500 g/ha [8, 26]: 80% | pest or weed control at 500 g/ha [9, 27]: 80%

O=S(=O)([O-])CC[n+]1ccc(-c2cc(C(F)(F)F)ncn2)cn1 [Compound A109]
pest or weed control at 500 g/ha [1, 19]: 40% | pest or weed control at 500 g/ha [2, 20]: 30% | pest or weed control at 500 g/ha [3, 21]: 60% | pest or weed control at 500 g/ha [4, 22]: 60% | pest or weed control at 500 g/ha [5, 23]: 50% | pest or weed control at 500 g/ha [6, 24]: 50% | pest or weed control at 500 g/ha [7, 25]: 50% | pest or weed control at 500 g/ha [8, 26]: 30% | pest or weed control at 500 g/ha [9, 27]: 60%

CNC(=O)c1ccnc(-c2cc[n+](CCC(=O)[O-])nc2)n1 [Compound A59]
pest or weed control at 500 g/ha [1, 19]: 80% | pest or weed control at 500 g/ha [2, 20]: 70% | pest or weed control at 500 g/ha [3, 21]: 90% | pest or weed control at 500 g/ha [4, 22]: 100% | pest or weed control at 500 g/ha [5, 23]: 90% | pest or weed control at 500 g/ha [6, 24]: 100% | pest or weed control at 500 g/ha [7, 25]: 80% | pest or weed control at 500 g/ha [8, 26]: 100% | pest or weed control at 500 g/ha [9, 27]: 90%
